Series [1] deals with IL-2. As to the kind of experiment: IL-2 production by T cells (anti-CD3 stimulated, ELISA). The class given is cell-based, human. As to conditions: procedures substantially similar to Section 5.10. The method, then: PBMC are depleted of adherent monocytes by placing 1×10^8 PBMC in 10 ml complete medium (RPMI 1640 supplemented with 10% heat-inactivated fetal bovine serum, 2 mM L-glutamine, 100 U/ml penicillin, and 100 µg/ml streptomycin) per 10 cm tissue culture dish, in 37 C, 5% CO2 incubator for 30-60 minutes. The dish is rinsed with medium to remove all non-adherent PBMC. T cells are purified by negative selection using the following antibody (Pharmingen) and Dynabead (Dynal) mixture for every 1×10^8 non-adherent PBMC: 0.3 ml Sheep anti-mouse IgG beads, 15 1 anti-CD16, 15 1 anti-CD33, 15 1 anti-CD56, 0.23 ml anti-CD19 beads, 0.23 ml anti-HLA class II beads, and 56 1 anti-CD14 beads. The cells and bead/antibody mixture is rotated end-over-end for 30-60 minutes at 4 C. Purified T cells are removed from beads using a Dynal magnet. Typical yield is about 50% T cells, 87-95% CD3^+ by flow cytometry.
Tissue culture 96-well flat-bottom plates are coated with anti-CD3 antibody OKT3 at 5 μg/ml in PBS, 100 μl per well, incubated at 37° C. for 3-6 hours, then washed four times with complete medium 100 μl/well just before T cells are added. Compounds are diluted to 20 times of final in a round bottom tissue culture 96-well plate. Final concentrations are about 10 μM to about 0.00064 μM. A 10 mM stock of compounds provided herein is diluted 1:50 in complete for the first 20× dilution of 200 μM in 2% DMSO and serially diluted 1:5 into 2% DMSO. Compound is added at 10 μl per 200 l culture, to give a final DMSO concentration of 0.1%. Cultures are incubated at 37° C., 5% CO2 for 2-3 days, and supernatants analyzed for IL-2 and MIP-3 by ELISA (R&D Systems). IL-2 and MIP-3 levels are normalized to the amount produced in the presence of an amount of a compound provided herein, and EC50s calculated using non-linear regression, sigmoidal dose-response, constraining the top to 100% and bottom to 0%, allowing variable slope (GraphPad Prism v3.02).
For orientation: In an ELISA, binding on a coated surface is turned into a signal by an enzyme label.

Series [2] has as its system Namalwa cells. Put plainly: Cell proliferation assay (3H-thymidine incorporation). As to conditions: procedures substantially similar to Section 5.10. The class given is cell-based. The method, then: Cell lines Namalwa, MUTZ-5, and UT-7 are obtained from the Deutsche Sammlung von Mikroorganismen und Zellkulturen GmbH (Braunschweig, Germany). The cell line KG-1 is obtained from the American Type Culture Collection (Manassas, Va., USA). Cell proliferation as indicated by ^3H-thymidine incorporation is measured in all cell lines as follows.
Cells are plated in 96-well plates at 6000 cells per well in media. The cells are pre-treated with compounds at about 100, 10, 1, 0.1, 0.01, 0.001, 0.0001 and 0 M in a final concentration of about 0.25% DMSO in triplicate at 37° C. in a humidified incubator at 5% CO2 for 72 hours. One microcurie of ^3H-thymidine (Amersham) is then added to each well, and cells are incubated again at 37 C in a humidified incubator at 5% CO2 for 6 hours. The cells are harvested onto UniFilter GF/C filter plates (Perkin Elmer) using a cell harvester (Tomtec), and the plates are allowed to dry overnight. Microscint 20 (Packard) (25 ÿl/well) is added, and plates are analyzed in TopCount NXT (Packard). Each well is counted for one minute. Percent inhibition of cell proliferation is calculated by averaging all triplicates and normalizing to the DMSO control (0% inhibition). Each compound is tested in each cell line in three separate experiments. Final IC50s are calculated using non-linear regression, sigmoidal dose-response, constraining the top to 100% and bottom to 0%, allowing variable slope. (GraphPad Prism v3.02).
Background: Incorporation of labelled thymidine or its analogues reports DNA synthesis.

The test system of series [3] is TNFα. Put plainly: TNFα Inhibition Assay in PMBC (LPS-stimulated, ELISA). The class given is cell-based, human. As to conditions: LPS-stimulated PBMC; procedures substantially similar to Section 5.10. The method, then: Peripheral blood mononuclear cells (PBMC) from normal donors are obtained by Ficoll Hypaque (Pharmacia, Piscataway, N.J., USA) density centrifugation. Cells are cultured in RPMI 1640 (Life Technologies, Grand Island, N.Y., USA) supplemented with 10% AB+human serum (Gemini Bio-products, Woodland, Calif., USA), 2 mM L-glutamine, 100 U/ml penicillin, and 100 µg/ml streptomycin (Life Technologies).
PBMC (2×10^5 cells) are plated in 96-well flat-bottom Costar tissue culture plates (Corning, N.Y., USA) in triplicate. Cells are stimulated with LPS (from Salmonella abortus equi, Sigma cat. no. L-1887, St. Louis, Mo., USA) at 1 ng/ml final in the absence or presence of compounds. Compounds provided herein are dissolved in DMSO (Sigma) and further dilutions are done in culture medium immediately before use. The final DMSO concentration in all assays can be about 0.25%. Compounds are added to cells 1 hour before LPS stimulation. Cells are then incubated for 18-20 hours at 37° C. in 5% CO2, and supernatants are then collected, diluted with culture medium and assayed for TNF levels by ELISA (Endogen, Boston, Mass., USA). IC50s are calculated using non-linear regression, sigmoidal dose-response, constraining the top to 100% and bottom to 0%, allowing variable slope (GraphPad Prism v3.02).

For `Nc1cccc2c1CN(C1CCC(=O)NC1=O)C2=S` (stereo not shown) [3-(4-Amino-1-thioxo-1,3-dihydro-isoindol-2-yl)-piperidine-2,6-dione], the “ability to stimulate IL-2 (activity range)” value in series [1] is recorded as “μM-mM”. In addition, the “ability to inhibit proliferation of Namalwa cells (activity range)” value (“ability to inhibit proliferation” for short) in series [2] was “μM-mM”. Further, the “ability to inhibit TNFα (activity range)” value in series [3] is on record as “μM-mM”.

On to `Nc1cccc2c1CN(C1CCC(=S)NC1=O)C2=S` (stereo not shown) [3-(4-Amino-1-thioxo-1,3-dihydro-isoindol-2-yl)-6-thioxo-piperidin-2-one], for which, in series [1], the “ability to stimulate IL-2 (activity range)” value was “μM-mM”. Besides, in series [2], the “ability to inhibit proliferation” value was “μM-mM”. For the same compound, the “ability to inhibit TNFα (activity range)” value in series [3] is given as “μM-mM”.

As a reminder, the melting point is the temperature of the solid-liquid transition. In the case of `O=C1NC(=S)CCC1N1Cc2c(cccc2[N+](=O)[O-])C1=S` (stereo not shown) [3-(4-Nitro-1-thioxo-1,3-dihydro-isoindol-2-yl)-6-thioxo-piperidin-2-one], the melting point was 248 to 250 °C. For the same compound, in series [1], the “ability to stimulate IL-2 (activity range)” value was “μM-mM”. Also, the “ability to inhibit proliferation” value in series [2] is listed as “μM-mM”. For the same compound, in series [3], the “ability to inhibit TNFα (activity range)” value is given as “μM-mM”.

The record behind these values is patent US20090298882A1, “THIOXOISOINDOLINE COMPOUNDS AND COMPOSITIONS COMPRISING AND METHODS OF USING THE SAME” (priority 2008, published 2009).
